Results taken from paper PMC4445981, “The glutamate transport inhibitor DL-Threo-β-Benzyloxyaspartic acid (DL-TBOA) differentially affects SN38- and oxaliplatin-induced death of drug-resistant colorectal cancer cells” (BMC Cancer, 2015).

Legend:
Assay type in all cases: cell-based, human
[1] = test system: cellular reduced glutathione (GSH); assay: Cellular GSH level; conditions: parental HCT116 cells; 24 h; 0.8 μM SN38 or 20 μM oxaliplatin
Procedure: Fig. 4 Effect of glutamate transporter inhibition on cellular GSH levels. a Basal intracellular GSH levels were measured as described in Materials and Methods, and normalized to total protein in the samples. b-c Normalized basal GSH levels under control conditions, in HCT116 and LoVo parental and resistant cells after 24 h of treatment with 0.8 μM SN38 or 20 μM oxaliplatin, in absence or presence of DL-TBOA (350 μM) as shown. * p < 0.05 vs untreated control group (n = 5). One-way ANOVA followed by Dunnett post-test
Cells were seeded in 24-well plates (10^4 cells per well), treated the next day with chemotherapy and/or DL-TBOA and incubated for 24 h. Medium was removed and cells were washed twice with ice-cold PBS, which was removed and 500 μl ice-cold 1 % Sulfosalicylic acid was added per well. Cells were incubated on ice for at least 10 min. After centrifugation (1 min, 15,000 g), 10 μl lysate was used to determine total GSx content. To measure GSSG content, 130 μl sample was mixed with 55 μl 0.2 M Tris (pH 9) and 5 μl 2-Vinylpyridine. Tubes were vortexed carefully and incubated for at least 1 h at room temperature. 10 μl of this mix was mixed first with 90 μl of water in a 96-well plate and then with a reaction mix (0.1 M sodium phosphate buffer pH 7.5 containing 1 mM EDTA, 10 mM NADPH, 10 mM DTNB and 0.05 μl Glutathione reductase, 2U/μl). Measurements were taken every 30 s for 10 min in an ELISA plate reader (Thermo Scientific MultiScan FC) at 405 nm absorbance. GSH values were obtained by subtraction of GSSG values from GSx values.

[2] = test system: p21^WAF1/Cip (p21); assay: p21 protein level by Western blotting; conditions: 24 h
Procedure: (§1) Cells were grown to a confluence of 60-80 % and treated with chemotherapy, siRNA- or plasmid transfection as indicated. Cells were washed once in PBS, lysed in lysis buffer (1 % SDS, 0.1 M Tris pH 7.5, and 1 mM Na3VO4), sonicated, and protein content determined (DC assay, BioRad). Lysates were mixed 2:1with NuPage LDS sample buffer (Invitrogen). SDS-PAGE was carried out in NOVEX chambers with NuPAGE 10 % Bis-Tris gels under reducing and denaturing conditions, using BenchMark protein ladder (Invitrogen), and 15 μg protein per lane. Proteins were transferred to PVDF membranes, which were Ponceau S stained, blocked for 1 h at 37 °C in 5 % nonfat dry milk in TBST (0.01 M Tris/HCl, 0.15 M NaCl, 0.1 % Tween 20, pH 7.4), incubated overnight at 4 °C with primary antibodies diluted in blocking buffer, washed in TBST, incubated with secondary antibodies for 1 h, washed in TBST, and developed using BCIP/NBT (KPL). Bands were scanned and quantified using UN-SCAN-IT (Silk Scientific).
Supplementary file 12885_2015_1405_MOESM3_ESM.tiff: Additional file 3: Figure S3. Effects of DL-TBOA on cell death and survival parameters after chemotherapy treatment of HCT116 cells. Parental and drug-resistant HCT116 cell lines seeded in 6-well dishes were exposed to SN38 (0.8 μM) or oxaliplatin (20 μM), alone or in combination with 350 μM DL-TBOA as indicated, for 24 h. Equal amounts of protein per lane were separated by SDS-PAGE and the protein levels of p21, and PARP-1 (full-length and cleaved, the latter indicated by arrowheads) were determined by Western blotting. Top: Representative Western blots, with p150 as loading control. Bottom: Densitometric quantifications based on 3 independent experiments per condition. Data are means with S.E.M. error bars of 3 independent experiments. *) p < 0.05, **) p < 0.01, ***) p < 0.001,****) p < 0.0001 compared to the control group without drug or TBOA treatment; #) p < 0.05 compared to controls without TBOA treatment. Two-way ANOVA with Tukey post-test.

[3] = test system: SLC1A1 localization in HCT116 cells; assay: Immunofluorescence analysis of SLC1A1 subcellular localization; conditions: parental HCT116 cells; 48 h; 0.8 μM SN38 or 20 μM oxaliplatin
Procedure: Immunofluorescence analysis was carried out essentially as in [47]. Cells grown on glass coverslips were fixed in 2 % paraformaldehyde, washed in TBST, permeabilized for 5 min (0.5 % Triton X-100 in TBST), blocked for 30 min in 5 % BSA in TBST, incubated with SLC1A1 primary antibody in TBST + 1 % BSA overnight at 4 °C, washed in TBST, and with Rhodamine-phalloidin and AlexaFluor488 conjugated secondary antibody (1:600 in TBS + 1 % BSA) for 1 h, followed by washing in TBST, and mounting in N-propyl-galleate mounting medium (2 % w/v in PBS/glycerol). DAPI was added for 3 min following incubation with the secondary antibody. Cells were visualized using the 60X/1.35 NA objective of an Olympus Bx63 epifluorescence microscope. […] Overlays were carried out using Adobe Photoshop software. No other image adjustment was performed.

[4] = test system: PARP-1 cleavage; assay: PARP-1 cleavage by Western blotting; conditions: HCT116 parental, oxaliplatin-resistant and SN38-resistant cells; 0.8 μM SN38, 24 h
Procedure: as §1
Supplementary file 12885_2015_1405_MOESM3_ESM.tiff: Additional file 3: Figure S3. […] Equal amounts of protein per lane were separated by SDS-PAGE and the protein levels of p21, and PARP-1 (full-length and cleaved, the latter indicated by arrowheads) were determined by Western blotting. […] Bottom: Densitometric quantifications based on 3 independent experiments per condition. […]

[5] = test system: p53; assay: p53 protein level by Western blotting; conditions: 24 h
Procedure: Fig. 5 Effects of DL-TBOA on cell death and survival parameters after chemotherapy treatment. Parental and drug-resistant HCT116 (a) and LoVo (b) cell lines were exposed to SN38 (0.8 μM) or oxaliplatin (20 μM), alone or in combination with 350 μM DL-TBOA as indicated, for 24 h. Equal amounts of protein per lane were separated by SDS-PAGE and the protein level of p53 was determined by Western blotting. Top: Representative Western blots, with p150 as loading control. Bottom: Densitometric quantifications based on 3 independent experiments per condition. Data are means with S.E.M. error bars of 3 independent experiments. *) p < 0.05, **) p < 0.01, ***) p < 0.001,****) p < 0.0001 compared to the control group without drug or TBOA treatment; Two-way ANOVA with Tukey post-test
as §1

[6] = test system: parental and drug-resistant HCT116 and LoVo cell lines; assay: MTT viability assay, HCT116 and LoVo cell lines; conditions: Homo sapiens; parental HCT116 and LoVo; 48 h; 0.8 μM SN38 (highest dose tested); read-out: viable cells remaining
Procedure: Fig. 2 DL-TBOA augments SN38-induced death in SN38-resistant cells, but protects oxaliplatin-resistant cells from oxaliplatin-induced death. Parental and drug-resistant HCT116 and LoVo cell lines seeded in 96-well dishes were exposed to SN38 (0.1 or 0.8 μM) or oxaliplatin (0.8 or 20 μM), alone or in combination with 70 or 350 μM DL-TBOA as indicated, for 48 h. Viability was assessed by MTT assay. a-b Parental HCT116 cells, (c) SN38 resistant HCT116 cells, (d) Oxaliplatin-resistant HCT116 cells, (e-f) Parental LoVo cells, (g) SN38 resistant LoVo cells, (h) Oxaliplatin-resistant LoVo cells. Data are means with S.E.M. error bars of 3 independent experiments. *) p < 0.05, **) p < 0.01, ***) p < 0.001 compared to the control group without drug or TBOA treatment; #) p < 0.05 compared to controls without TBOA treatment. One-way ANOVA followed by Dunnett post-test
Cells were seeded at appropriate density (LoVo 10,000, and HCT116 5000 cells /100 μl) in growth medium in 96-well plates. Next day, cells were treated with inhibitors and/or chemotherapy in a total volume of 200 μl in growth medium and incubated for 48 h at 37 °C, 5 % CO2. The medium was replaced with 100 μl of 0.5 mg/ml 3-(4,5-dimethylthiazol-2-yl)-2,5-diphenyltetrazolium bromide (MTT) in growth medium. The reaction was stopped 1.5-2.5 h later by addition of 100 μl 20 % SDS in 0.02 M HCl, and incubation overnight to allow complete lysis of cells and formazan crystals. Absorbance was measured in an ELISA plate reader (Thermo Scientific MultiScan FC) at 550 nm. Data were background subtracted and % viability relative to controls calculated.

[7] = SN38-resistant HCT116 cells, 0.8 μM SN38 or 20 μM oxaliplatin
[8] = oxaliplatin-resistant HCT116 cells, 0.8 μM SN38
[9] = parental HCT116 cells, 0.8 μM SN38 or 20 μM oxaliplatin

## CCc1c2c(nc3ccc(O)cc13)-c1cc3c(c(=O)n1C2)COC(=O)[C@]3(O)CC [SN38, 7-ethyl-10-hydroxycamptothecin]
[1]
  effect on cellular GSH levels: slightly increased GSH levels
[2]; [7]
  p21 protein level: modestly increased p21 expression
[2]; [8]
  p21 protein level: only SN38 induced p53 and p21 expression
[2]; [9]
  p21 protein level: markedly induced
[3]
  SLC1A1 subcellular localization: marked shift in SLC1A1 localization towards the perinuclear/nuclear region
[4]
  PARP-1 cleavage: induced by SN38 in parental and oxaliplatin-resistant, yet not in SN38-resistant, cells
[5]; [7]
  p53 protein level: essentially no effect on p53 expression
[5]; [8]
  p53 protein level: only SN38 induced p53 and p21 expression
[5]; [9]
  p53 protein level: markedly induced
[6]
  viability at 0.8 µM: ~20%
